Laboratory results published in patent publication US20230085307A1, “PYRIDAZINONE COMPOUND AND HERBICIDE” (NISSAN CHEMICAL CORPORATION, priority 2019, published 2023).

Experiments:
chickweed [1] = assay: Test Example 4: herbicidal effect by soil treatment (Table 19, symbol P); type: in vivo, common chickweed (Stellaria media); conditions: amount of applied herbicide 320 g/ha
Outline: (§1)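 Step 1: sow seeds in sterilized diluvial soil, cover ~1.5 cm. Step 2: spray diluted emulsion onto soil surface at predetermined rate. Step 3: greenhouse, 25–30° C, three weeks. Step 4: grade effect on each plant by earlier criteria.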

oval-leafed pondweed = assay: Test Example 2: herbicidal activity, application during weed generation under submerged conditions (Table 17, symbol C); type: in vivo, oval-leafed pondweed (Monochoria vaginalis); conditions: AAH 320 g/ha; application during weed generation, submerged conditions
Outline: (§2)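 Alluvial soil in Wagner pots was flooded to 4 cm depth and sown with the three weeds together; pots were kept in a greenhouse at 25° C. to 30° C. At the one to two leaf stage, an emulsion formulation diluted in water to a set rate went onto the water surface; scored three weeks later.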

lambsquarters = assay: Test Example 4: herbicidal effect by soil treatment (Table 19, symbol O); type: in vivo, lambsquarters (Chenopodium album); conditions: amount of applied herbicide 320 g/ha
Outline: as §1

redroot pigweed = assay: Test Example 5: herbicidal effect by foliage application, plastic box (Table 20, symbol N); type: in vivo, redroot pigweed (Amaranthus retroflexus); conditions: foliage application, 320 g/ha, three weeks after application
Outline: (§3)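 Foliar spray test: emulsion formulation diluted in water to a set application rate, sprayed onto 14-day-old plants raised in diluvial soil at 25° C to 30° C under glass. Both herbicidal effect and crop effect rated visually three weeks later.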

Japanese bulrush = assay: Test Example 2: herbicidal activity, application during weed generation under submerged conditions (Table 17, symbol B); type: in vivo, Japanese bulrush (Schoenoplectus juncoides); conditions: AAH 320 g/ha; application during weed generation, submerged conditions
Outline: as §2

barnyard grass = assay: Test Example 4: herbicidal effect by soil treatment (Table 19, symbol H); type: in vivo, barnyard grass (Echinochloa crus-galli); conditions: amount of applied herbicide 320 g/ha
Outline: as §1

late watergrass [2] = assay: Test Example 2: herbicidal activity, application during weed generation under submerged conditions (Table 17, symbol A); type: in vivo, late watergrass (Echinochloa oryzicola); conditions: AAH 320 g/ha; application during weed generation, submerged conditions
Outline: as §2

late watergrass [3] = assay: Test Example 1: herbicidal activity, application before weed generation under submerged conditions (Table 16, symbol A); type: in vivo, late watergrass (Echinochloa oryzicola); conditions: amount of applied herbicide 320 g/ha
Outline: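 Emulsion formulation, water-diluted to set dose, was put onto the flooded surface (4 cm depth, alluvial soil) the same day weeds were sown and 2.5-leaf rice transplanted. After 3 weeks at 25-30 °C under glass, each species was rated 0 (≤5% kill) to 5 (≥90% kill).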

persian speedwell = assay: Test Example 4: herbicidal effect by soil treatment (Table 19, symbol R); type: in vivo, Persian speedwell (Veronica persica); conditions: amount of applied herbicide 320 g/ha
Outline: as §1

velvetleaf [4] = assay: Test Example 4: herbicidal effect by soil treatment (Table 19, symbol M); type: in vivo, velvetleaf (Abutilon theophrasti); conditions: amount of applied herbicide 320 g/ha
Outline: as §1

chickweed [5] = assay: Test Example 5: herbicidal effect by foliage application, plastic box (Table 20, symbol P); type: in vivo, common chickweed (Stellaria media); conditions: foliage application, 320 g/ha, three weeks after application
Outline: as §3

windgrass = assay: Test Example 4: herbicidal effect by soil treatment (Table 19, symbol L); type: in vivo, windgrass (Apera spica-venti); conditions: amount of applied herbicide 320 g/ha
Outline: as §1

Italian ryegrass = assay: Test Example 5: herbicidal effect by foliage application, plastic box (Table 20, symbol K); type: in vivo, Italian ryegrass (Lolium multiflorum); conditions: foliage application, 320 g/ha, three weeks after application
Outline: as §3

green foxtail [6] = assay: Test Example 5: herbicidal effect by foliage application, plastic box (Table 20, symbol G); type: in vivo, green foxtail (Setaria viridis); conditions: foliage application, 320 g/ha, three weeks after application
Outline: as §3

velvetleaf [7] = assay: Test Example 5: herbicidal effect by foliage application, plastic box (Table 20, symbol M); type: in vivo, velvetleaf (Abutilon theophrasti); conditions: foliage application, 320 g/ha, three weeks after application
Outline: as §3

green foxtail [8] = assay: Test Example 4: herbicidal effect by soil treatment (Table 19, symbol G); type: in vivo, green foxtail (Setaria viridis); conditions: amount of applied herbicide 320 g/ha
Outline: as §1

rice flat sedge = assay: Test Example 3: herbicidal effect by foliage application, Wagner pot (Table 18, symbol E); type: in vivo, rice flat sedge (Cyperus iria); conditions: for herbicidal effect on E: rice flat sedge: amount of applied herbicide 320 g/ha; for herbicidal effect on rice flat sedge (E): 320 g/ha
Outline: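 Plants were sown in alluvial soil held under 0.1–0.5 cm standing water and grown 14 days in a greenhouse at 25–30 °C. An emulsifiable formulation, water-diluted to the set dose, was then sprayed onto the foliage, and effects were scored three weeks later using previously defined criteria.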

Compound | P: chickweed, herbicidal effect grade (chickweed [1]) | herbicidal effect rating, C: oval-leafed pondweed (oval-leafed pondweed) | O: lambsquarters, herbicidal effect grade (lambsquarters) | N: redroot pigweed, herbicidal effect grade (redroot pigweed) | herbicidal effect rating, B: Japanese bulrush (Japanese bulrush) | H: barnyard grass, herbicidal effect grade (barnyard grass) | herbicidal effect rating, A: late watergrass (late watergrass [2]) | Herbicidal effect, A: late watergrass (late watergrass [3]) | R: persian speedwell, herbicidal effect grade (persian speedwell) | M: velvetleaf, herbicidal effect grade (velvetleaf [4]) | P: chickweed, herbicidal effect grade (chickweed [5]) | L: windgrass, herbicidal effect grade (windgrass) | K: Italian ryegrass, herbicidal effect grade (Italian ryegrass) | G: green foxtail, herbicidal effect grade (green foxtail [6]) | M: velvetleaf, herbicidal effect grade (velvetleaf [7]) | G: green foxtail, herbicidal effect grade (green foxtail [8]) | herbicidal effect on E: rice flat sedge (rice flat sedge) | herbicidal effect on rice flat sedge (E) (rice flat sedge)
COc1ccccc1-c1sc2cc(F)ccc2c1-c1c(OS(=O)(=O)c2ccc(C)cc2)c(C)nn(C)c1=O [3-027] | 0 (Herbicidal rate of 5% or less (almost no effect)) | 3 (Herbicidal rate of 40% or more and less than 70%) | 0 (Herbicidal rate of 5% or less (almost no effect)) | 5 (Herbicidal rate of 90% or more (almost completely withered)) | 2 (Herbicidal rate of 20% or more and less than 40%) | 0 (Herbicidal rate of 5% or less (almost no effect)) | 3 (Herbicidal rate of 40% or more and less than 70%) | 2 (Herbicidal rate of 20% or more and less than 40%) | 0 (Herbicidal rate of 5% or less (almost no effect)) | 0 (Herbicidal rate of 5% or less (almost no effect)) | 3 (Herbicidal rate of 40% or more and less than 70%) | 0 (Herbicidal rate of 5% or less (almost no effect)) | 3 (Herbicidal rate of 40% or more and less than 70%) | 5 (Herbicidal rate of 90% or more (almost completely withered)) | 5 (Herbicidal rate of 90% or more (almost completely withered)) | 0 (Herbicidal rate of 5% or less (almost no effect)) | 5 (Herbicidal rate of 90% or more (almost completely withered)) | 
COc1ccccc1-c1sc2cc(F)ccc2c1-c1c(OS(=O)(=O)N(C)C)c(C)nn(C)c1=O [3-028] | 0 (Herbicidal rate of 5% or less (almost no effect)) | 0 (Herbicidal rate of 5% or less (almost no effect)) | 0 (Herbicidal rate of 5% or less (almost no effect)) | 5 (Herbicidal rate of 90% or more (almost completely withered)) | 0 (Herbicidal rate of 5% or less (almost no effect)) | 0 (Herbicidal rate of 5% or less (almost no effect)) | 2 (Herbicidal rate of 20% or more and less than 40%) | 2 (Herbicidal rate of 20% or more and less than 40%) | 0 (Herbicidal rate of 5% or less (almost no effect)) | 0 (Herbicidal rate of 5% or less (almost no effect)) | 5 (Herbicidal rate of 90% or more (almost completely withered)) | 3 (Herbicidal rate of 40% or more and less than 70%) | 4 (Herbicidal rate of 70% or more and less than 90%) | 4 (Herbicidal rate of 70% or more and less than 90%) | 4 (Herbicidal rate of 70% or more and less than 90%) | 0 (Herbicidal rate of 5% or less (almost no effect)) | 5 (Herbicidal rate of 90% or more (almost completely withered)) | 
CCCC(=O)Oc1c(C)nn(C)c(=O)c1-c1c(-c2ccc(Cl)cc2)sc2cc(Cl)ccc12 [3-034] | 3 (Herbicidal rate of 40% or more and less than 70%) | 0 (Herbicidal rate of 5% or less (almost no effect)) | 0 (Herbicidal rate of 5% or less (almost no effect)) | 4 (Herbicidal rate of 70% or more and less than 90%) | 0 (Herbicidal rate of 5% or less (almost no effect)) | 0 (Herbicidal rate of 5% or less (almost no effect)) | 3 (Herbicidal rate of 40% or more and less than 70%) | 3 (Herbicidal rate of 40% or more and less than 70%) | 4 (Herbicidal rate of 70% or more and less than 90%) | 3 (Herbicidal rate of 40% or more and less than 70%) | 5 (Herbicidal rate of 90% or more (almost completely withered)) | 0 (Herbicidal rate of 5% or less (almost no effect)) | 4 (Herbicidal rate of 70% or more and less than 90%) | 4 (Herbicidal rate of 70% or more and less than 90%) | 4 (Herbicidal rate of 70% or more and less than 90%) | 0 (Herbicidal rate of 5% or less (almost no effect)) |  | 5 (Herbicidal rate of 90% or more (almost completely withered))
CCOc1ccccc1-c1sc2cc(Cl)ccc2c1-c1c(O)c(C)nn(C)c1=O [3-039] | 5 (Herbicidal rate of 90% or more (almost completely withered)) | 0 (Herbicidal rate of 5% or less (almost no effect)) | 3 (Herbicidal rate of 40% or more and less than 70%) | 4 (Herbicidal rate of 70% or more and less than 90%) | 2 (Herbicidal rate of 20% or more and less than 40%) | 4 (Herbicidal rate of 70% or more and less than 90%) | 2 (Herbicidal rate of 20% or more and less than 40%) | 2 (Herbicidal rate of 20% or more and less than 40%) | 5 (Herbicidal rate of 90% or more (almost completely withered)) | 3 (Herbicidal rate of 40% or more and less than 70%) | 5 (Herbicidal rate of 90% or more (almost completely withered)) | 0 (Herbicidal rate of 5% or less (almost no effect)) | 4 (Herbicidal rate of 70% or more and less than 90%) | 5 (Herbicidal rate of 90% or more (almost completely withered)) | 5 (Herbicidal rate of 90% or more (almost completely withered)) | 4 (Herbicidal rate of 70% or more and less than 90%) |  | 5 (Herbicidal rate of 90% or more (almost completely withered))
